Here are results for one compound from EP3925949A1, “AZIDO COMPOUNDS AND METHOD FOR MONITORING ACID CERAMIDASE ACTIVITY IN INTACT CELLS USING THEM” (Consejo Superior de Investigaciones Científicas (CSIC), priority 2020, dated 2021).

What all share (assay type): biochemical
The target of test [1] is T1, ACER3 (Mus musculus, UniProt Q9D099).
T1 construct: endogenous in cells; host or cells: MEF5 cells (NC-deficient)
T1 sequence (Q9D099 1-267): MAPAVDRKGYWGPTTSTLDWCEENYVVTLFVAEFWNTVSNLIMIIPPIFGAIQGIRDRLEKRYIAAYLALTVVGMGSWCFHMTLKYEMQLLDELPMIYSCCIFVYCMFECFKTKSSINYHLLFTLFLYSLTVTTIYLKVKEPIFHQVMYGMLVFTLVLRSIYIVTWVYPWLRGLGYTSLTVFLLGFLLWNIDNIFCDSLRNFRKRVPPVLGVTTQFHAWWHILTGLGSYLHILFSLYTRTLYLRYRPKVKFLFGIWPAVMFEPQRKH
In words: Hydrolysis of RBM5-177 by microsomes of ACER3 overexpressing cells, UPLC-HRMS. The conditions noted are these: microsomes from ACER3 overexpressing cells, RBM5-177 5 µM, 30 min. As for the experimental part:
(§1) Cell lysates obtained from HeLa T-Rex ACER1-TET-ON, HeLa T-Rex ACER2-TET-ON and MEF5 overexpressing ACER3 cells were transferred to ultracentrifuge tubes and were spun at 100000 g for 1 h at 4°C. Pellets were resuspended in a 0.25 M saccharose solution and protein concentration was determined as specified below.
(§2) Cells were seeded at 5 × 10^5 cells/mL into 6 well plates (1 mL/well) and were allowed to adhere for 24 h. Medium was replaced with fresh medium containing RBM5-177, RBM5-019 or RBM2-37 (5 µM final concentration). After 30 min, medium was removed; cells were washed with 400 µL PBS and harvested with 400 µL Trypsin-EDTA and 600 µL of medium. NC recombinant enzyme, lysates from A375-AC overexpressing cells, MEF5 or microsomes from HeLa T-Rex ACER1-TET-ON and HeLa T-Rex […] activity buffer. Cell pellets were resuspended with 100 µL of H2O and mixed with 750 µL of methanol: chloroform, 2:1. Samples were heated at 48°C overnight and next day, 75 µL of 1 M KOH in methanol were added, followed by 2 h incubation at 37°C. Afterwards, the saponification was neutralised with 75 µL of 1 M acetic acid and solvent was removed using a Speed Vac Savant SPD131 DDA (Thermo Scientific). […]

Test [2] deals with T2, human recombinant neutral ceramidase (NC) (Homo sapiens, UniProt Q9NR71).
T2 construct: purchased R&D Systems
The test is described as follows: Hydrolysis of RBM5-177 by recombinant NC, UPLC-HRMS. The conditions noted are these: RBM5-177 5 µM, 30 min. As for the experimental part: as §2, with “Scientific). Sphingolipid extracts, fortified with internal standards (N-dodecanoylsphingosine, N-dodecanoylglucosylsphingosine, N-dodecanoylsphingosylphosphorylcoline and C17-sphinganine 0.2 nmol each) were solubilised in 150 µL of methanol. Samples were then centrifuged at 9,300 g for 3 min and 130 µL of the supernatant were injected to a Waters Aquity UPLC system connected to a Waters LCT Premier Orthogonal Accelerated Time of Flight Mass Spectrometer (Waters,Milford, MA, USA) operated in positive electrospray ionisation mode.” for “Scientific).”

In test [3] the target is T3, alkaline ceramidases 1 (ACER1) (Homo sapiens, UniProt Q8TDN7).
T3 construct: expressed in transfected cells; host or cells: HeLa T-Rex ACER1-TET-ON, tetracycline-induced; microsomes
T3 sequence (Q8TDN7 1-264): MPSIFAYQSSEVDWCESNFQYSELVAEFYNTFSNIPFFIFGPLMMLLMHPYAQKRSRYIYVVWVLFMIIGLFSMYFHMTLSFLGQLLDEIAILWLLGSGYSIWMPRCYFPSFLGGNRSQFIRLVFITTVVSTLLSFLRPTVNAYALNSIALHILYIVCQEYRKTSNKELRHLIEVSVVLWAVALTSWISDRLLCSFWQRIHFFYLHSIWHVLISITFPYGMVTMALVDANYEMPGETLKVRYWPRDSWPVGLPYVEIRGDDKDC
The test is described as follows: Hydrolysis of RBM5-177 by microsomes of ACER1 overexpressing cells, UPLC-HRMS. The conditions noted are these: microsomes from ACER1 overexpressing cells, RBM5-177 5 µM, 30 min. On the procedure: as §1, §2

For test [4], the target named is T4, ACER2 (Homo sapiens, UniProt Q5QJU3).
T4 construct: expressed in transfected cells; host or cells: HeLa T-Rex ACER2-TET-ON, tetracycline-induced; microsomes
The test is described as follows: Hydrolysis of RBM5-177 by microsomes of ACER2 overexpressing cells, UPLC-HRMS. The following applies: microsomes from ACER2 overexpressing cells, RBM5-177 5 µM, 30 min. On the procedure: as §1, §2

Each structure is given as a SMILES string.

T2 sequence (Q9NR71 whole entry): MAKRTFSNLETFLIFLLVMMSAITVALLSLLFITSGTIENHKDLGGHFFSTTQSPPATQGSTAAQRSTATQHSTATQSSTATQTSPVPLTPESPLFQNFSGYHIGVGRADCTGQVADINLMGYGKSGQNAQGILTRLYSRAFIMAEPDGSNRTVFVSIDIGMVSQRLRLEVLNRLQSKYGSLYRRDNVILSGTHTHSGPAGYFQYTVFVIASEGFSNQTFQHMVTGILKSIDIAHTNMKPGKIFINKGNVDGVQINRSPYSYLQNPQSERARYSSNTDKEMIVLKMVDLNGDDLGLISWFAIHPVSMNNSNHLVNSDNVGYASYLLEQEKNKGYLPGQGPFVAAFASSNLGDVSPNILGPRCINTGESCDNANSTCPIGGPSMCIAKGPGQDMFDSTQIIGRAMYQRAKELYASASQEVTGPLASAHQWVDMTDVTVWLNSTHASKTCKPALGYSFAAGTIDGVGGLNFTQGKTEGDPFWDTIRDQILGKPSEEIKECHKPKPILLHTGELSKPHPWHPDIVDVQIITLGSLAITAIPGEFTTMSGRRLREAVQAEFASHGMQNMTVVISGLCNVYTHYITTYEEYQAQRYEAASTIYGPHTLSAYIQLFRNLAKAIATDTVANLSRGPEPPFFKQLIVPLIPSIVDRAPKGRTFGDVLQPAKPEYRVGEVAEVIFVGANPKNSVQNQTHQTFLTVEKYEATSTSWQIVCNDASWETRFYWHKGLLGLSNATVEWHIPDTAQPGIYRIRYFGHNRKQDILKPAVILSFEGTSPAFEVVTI

Consider `CCCCCCCC(=O)N[C@@H](C)[C@H](O)CCCCCCCCCCCCN=[N+]=[N-]` [RBM5-177, N-((2S,3R)-15-azido-3-hydroxypentadecan-2-yl)octanamide], for which the “RBM5-19 formation (hydrolysis as substrate)” value in test [1], in test [2], in test [3] and in test [4] was “transformed into the free amine only by AC” throughout.
